[1] abbreviates: oral 1.3 mg/kg BID 14 days versus IT 0.25 mg/hour 5 days, higher in oral.

Excerpt: Animals were then sacrificed and a necropsy was immediately performed.
After stopping the 5-day treatment, animals were sacrificed and a necropsy was immediately performed. […] One hour after stopping the 14-day treatment, animals were sacrificed and a necropsy was immediately performed.
Animals were then sacrificed and a necropsy was immediately performed. […] Animals were then sacrificed and a necropsy was immediately performed.

With `Nc1nc2ccc(OC(F)(F)F)cc2s1` [Riluzole, 2-Amino-6-(trifluoromethoxy)benzothiazole], under “IT 0.25 mg/hour 5 days versus oral 1.3 mg/kg BID 14 days, higher in IT”, the “riluzole accumulation in the spinal cord, IT-treated compared to oral-treated dogs” value is on record as “approximately 4 fold”. Also, the “riluzole level in CSF, oral-treated compared to IT-treated dogs” value (oral 1.3 mg/kg BID 14 days versus IT 0.25 mg/hour 5 days) is on record as “similar”. Under setting [1], the “riluzole level in plasma, oral-treated compared to IT-treated dogs” value is listed as “approximately 20 fold” and the “riluzole level in urine, oral-treated compared to IT-treated dogs” value is on record as “approximately 3 fold”.

The values above are taken from US10322114B2 (Above and Beyond NB LLC, priority 2017, dated 2019).
